Consider 32 molecules from patent US20080261286A1, “Methods for producing optically active alpha-hydroxy amides” (Daicel Chemical Industries, Ltd., priority 2004, published 2008).

First the molecules themselves.
T1: α-ketoamide reductase (Saccharomyces cerevisiae, UniProt Q07551)
T1 construct: 500 g of live baker's yeast was purchased from Oriental yeast and the fungal cells were used to purify the enzyme; tissue Oriental Yeast; host or cells: live baker's yeast cells; enzyme purified to a single SDS-PAGE band
T1 sequence (Q07551 1-312): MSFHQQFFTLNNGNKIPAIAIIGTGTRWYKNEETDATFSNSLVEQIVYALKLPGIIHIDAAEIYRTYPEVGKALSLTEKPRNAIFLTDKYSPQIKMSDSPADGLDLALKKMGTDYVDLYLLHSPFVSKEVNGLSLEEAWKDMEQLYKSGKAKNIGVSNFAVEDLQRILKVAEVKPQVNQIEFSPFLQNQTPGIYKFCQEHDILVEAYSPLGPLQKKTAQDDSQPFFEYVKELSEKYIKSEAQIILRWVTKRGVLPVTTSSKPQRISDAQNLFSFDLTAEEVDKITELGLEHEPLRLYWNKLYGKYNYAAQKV

B1: α-ketoamide reductase: NADPH-dependent α-ketoamide reductase purified from baker's yeast, encoded by YDL124w (SEQ ID NO: 2) (protein, listed as Saccharomyces cerevisiae)
chain: T1 sequence (Q07551 1-312)

For the first data set, the target named is T1, α-ketoamide reductase. In words: Substrate specificity of α-ketoamide reductase (relative reducing activity). Format: biochemical. The following applies: activity of reducing 2-chlorobenzoyl formamide taken as 100, substrate concentration 1 mM. On the procedure:
(§1) The enzyme is incubated in a reaction solution containing 100 mM potassium phosphate buffer (pH 6.5), 0.2 mM NADPH, and 1 mM 2-chlorobenzoyl formamide at 30° C. Adecrease in NADPH concentration is assessed by the decrease in absorbance at 340 nm. 1 U is defined as the amount of enzyme required to catalyze the decrease of 1 μmol NADPH in one minute.
The enzyme obtained in Example 1 was incubated with any one of various α-ketoamides, α-ketoesters, β-ketoesters, aldehydes, ketones, and others. The reducing activity is represented as a relative activity when the activity of reducing 2-chlorobenzoyl formamide is taken as 100.
As for `NC(=O)C(=O)c1cccc(Cl)c1`, the “Reducing activity (%)” value was found to be 143%.
In the case of `NC(=O)C(=O)c1ccc(Cl)cc1`, the “Reducing activity (%)” value amounted to 71%.
Same read-out and setting: the result for `NC(=O)C(=O)c1ccccc1` reads 59%; that for `CCCCC(=O)C(=O)OCC`, 49%.
`CC(C)C(=O)C(=O)O`: the “Reducing activity (%)” value came out at 0%.
With `CCOC(=O)CC(=O)CCl`, the “Reducing activity (%)” value was 4%.
Take `CCOC(=O)CC(=O)c1ccccc1`: the “Reducing activity (%)” value stood at 0%.
Consider `CCOC(=O)C(C)C(C)=O` (centres unmarked), for which the “Reducing activity (%)” value is on record as 0%.
The same measure, in the same setting: for `CCOC(=O)C(Cl)C(C)=O` (centres unmarked) the value was 0%.
Consider `C=CCC(C(C)=O)C(=O)OCC` (centres unmarked), for which the “Reducing activity (%)” value is on record as 0%.
`O=CC(=O)c1ccccc1`: the “Reducing activity (%)” value is listed as 120%.
Regarding `O=C1CCCCC1=O`, the “Reducing activity (%)” value was determined as 10%.
As for `CC1(C)COC(=O)C1=O`, the “Reducing activity (%)” value amounted to 19%.
With `CC(=O)c1ccccc1`, the “Reducing activity (%)” value is given as 0%.
For `O=C(CCl)c1ccccc1`, the “Reducing activity (%)” value worked out at 0%.
Still for that read-out and setting: for `CC(=O)COC(C)=O` the value was 0%; for `COCC(C)=O`, 0%.
On the same count and under the same terms, the result for `NC(=O)C(=O)c1ccccc1Cl` [2-chlorobenzoyl formamide] reads 100%.
For the molecule `CCOC(=O)C(=O)c1ccccc1` [drawing 5], the “Reducing activity (%)” value was 32%.
With `CCOC(=O)C(C)=O` [drawing 6], the “Reducing activity (%)” value is on record as 9%.
Turning to `CCOC(=O)C(=O)CC` [drawing 7], the “Reducing activity (%)” value stood at 33%.
Turning to `CCCC(=O)C(=O)OCC` [drawing 8], the “Reducing activity (%)” value was 46%.
Turning to `CCCCCC(=O)C(=O)OCC` [drawing 10], the “Reducing activity (%)” value was 50%.
Turning to `CCOC(=O)C(=O)C(C)C` [drawing 11], the “Reducing activity (%)” value is given as 71%.

Another data set addresses T1, α-ketoamide reductase. In words: Stereoselectivity of α-ketoamide reductase (optical purity of reduction product). Format: biochemical. The following applies: product of reduction; 0.2 U purified enzyme, 10 μmol substrate, 10 μmol NADPH, pH 7.0, 37° C., 6 hours. On the procedure: 0.2 U of the purified enzyme and each of various α-ketoamides and α-ketoesters (10 μmol each) were incubated in 0.5 ml of 0.1 M potassium phosphate buffer (pH 7.0) in the presence of 10 μmol NADPH at 37° C. for 6 hours. The resulting α-hydroxy amides and α-hydroxyesters were extracted with ether, and then the optical purity of each compound was determined.
The optical purity was determined by the procedure described below.
The optical purity of 2-chloromandelamide was determined by chiral HPLC method or chiral GC method. The chiral HPLC method comprises chromatography using CHIRALPAK AS-H (DAICEL CHEMICAL INDUSTRIES, LTD.). The elution was carried out using a mixed solution of n-hexane and ethanol (85:15) at a flow rate 1.0 mL/min and a column temperature of 25° C. The elution peak for the compound was detected by UV absorbance at 254 nm. Under these conditions, 2-chloromandelamide was eluted 7.5 minutes (R-isomer) and 10.1 minutes (S-isomer) after the start of elution.
The chiral GC method comprises chromatography using GAMMA DEX 225 (SUPELCO; 30 m×0.25 mm×0.25 μm film thickness) under the following conditions: column temperature, 190° C.; injection temperature, 220° C.; detection temperature 220° C.; carrier gas, He/1.0 kg/cm^2. Under the conditions described above, the S-isomer was eluted 27.0 minutes, and the R-isomer was eluted 29.3 minutes after the start of the elution.
The optical purities of the other α-hydroxyesters were determined by the chiral GC method described below using Chirasil-DEX CB column (Varian; […]×0.25 μm film thickness). GAMMA DEX 225 was used to determine the optical purities of ethyl lactate (injection temperature, 180° C.; column temperature, […]; detection temperature, 180° C.; R-isomer, 6.13 minutes; S-isomer, 6.82 minutes), ethyl 2-hydroxybutyrate (injection temperature, 180° C.; column temperature, 100° C.; detection temperature, 180° C.; R-isomer, 5.88 minutes; S-isomer, 6.32 minutes), ethyl 2-hydroxyvalerate (injection temperature, 180° C.; column temperature, 110° C.; detection temperature, 180° C.; R-isomer, 6.17 minutes; S-isomer, 6.88 minutes), ethyl 2-hydroxy heptanoate (injection temperature, 180° C.; column temperature, 120° C.; detection temperature, 180° C.; R-isomer, 11.20 minutes; S-isomer, 12.00 minutes), and 2-hydroxyisovalerate (injection temperature, 180° C.; column temperature, 90° C.; detection temperature, 180° C.; R-isomer, 10.42 minutes; S-isomer, 10.89 minutes).
Consider `NC(=O)C(=O)c1ccccc1Cl` [drawing 25], for which the “Optical purity (%)” value is on record as above 99%.
Same read-out and setting: for `CCOC(=O)C(C)=O` [drawing 26] the value was above 99%.
Take `CCOC(=O)C(=O)CC` [drawing 27]: the “Optical purity (%)” value is above 99%.
Regarding `CCCC(=O)C(=O)OCC` [drawing 28], the “Optical purity (%)” value was determined as 98%.
With `CCCCCC(=O)C(=O)OCC` [drawing 29], the “Optical purity (%)” value is above 99%.
On to `CCOC(=O)C(=O)C(C)C` [drawing 30], for which the “Optical purity (%)” value was above 99%.
`CCOC(=O)C(=O)c1ccccc1` [drawing 31]: the “Optical purity (%)” value is on record as 97%.

The data set is the same for the next values; noted with them: purified enzyme (summary).
As to `NC(=O)C(=O)c1ccccc1Cl` [2-chlorobenzoyl formamide], the “purity of (R)-2-chloromandelamide produced” value is listed as at least 99%.

Test system in a further data set: not listed separately
In words: 2-chlorobenzoyl formamide-reducing activity of enzyme preparations. Format: biochemical. Conditions: purified enzyme; 1 mM 2-chlorobenzoyl formamide, 0.2 mM NADPH, pH 6.5, 30° C. On the procedure:
as §1
Cells of E. coli DH10B strain containing pSE-YDL1 or pSG-YDL1 were grown on LB medium containing ampicillin. Cells were induced with 0.1 mM IPTG for 4 hours, and then the cells were harvested by centrifugation.
Each sample of cells was suspended in cell lysis buffer (50 mM potassium phosphate buffer (pH 8.0) containing 0.02% 2-mercaptoethanol). The cells were crushed by sonication. Then, the lysates were centrifuged and the resulting supernatants were saved as cell-free extracts.
For the molecule B1, the specific activity result is recorded as “about 105 U/mg”.

The same data set, now with this note: purified enzyme; 1 mM 2-chlorobenzoyl formamide, 0.2 mM NADPH, pH 6.5, 30° C.; listed as purified enzyme.
The molecule B1 displayed a specific activity of 105 U/mg.

Test system in a further data set: not listed separately
The data set can be described thus: pH and temperature dependency and stability of α-ketoamide reductase. Format: biochemical. The following applies: 100 mM potassium phosphate buffer (pH 7.0), 30 minutes. On the procedure:
The pH of the reaction solution was altered using 0.1 M sodium acetate buffer (pH 4.0-5.5), potassiumphosphate buffer (pH 5.5-7.5), Tris-hydrochloride buffer (pH 7.5-9.0), and glycine-potassium hydroxide buffer (pH 9.0-10.5) to assess the pH dependency of the 2-chlorobenzoyl formamide-reducing activity of the enzyme obtained in Example 1. The activity at each pH was determined as a relative activity when the maximal activity was taken as 100. The optimal pH (pH range in which the relative activity is 80% or higher) was 5.5-6.5.
The enzyme obtained in Example 1 was assessed for 2-chlorobenzoyl formamide-reducing activity under standard reaction conditions at various temperatures. The activity at each temperature was determined as a relative activity when the maximal activity was taken as 100. The optimal temperature (temperature range in which the relative activity is 80% or higher) was 35 to 47° C.
The purified enzyme was incubated in 0.1 M sodium acetate buffer (pH 4.0-5.5), 0.1 M potassium phosphate buffer (pH 6.0-7.5), 0.1 M Tris-hydrochloride buffer (pH 8.0-9.0), or 0.1 M glycine-potassium hydroxide buffer (pH 9.5-10.5) at 37° C. for 10 minutes. Then, the enzymatic activity was determined as a relative activity when the activity before the treatment was taken as 100. The stable pH range (pH range in which the residual activity is 80% or higher) was pH 5.5 to 9.5.
The purified enzyme was incubated in 100 mM potassium phosphate buffer (pH 7.0) at 20 to 50° C. for 30 minutes. The temperature range in which the enzyme activity is stable (temperature range in which the residual activity is 80% or higher) falls within the range comprising 40° C. and lower temperatures.
As to B1, the “temperature range in which the residual activity is 80% or higher” value was at most 40 °C.

Staying with this data set, now noted: 2-chlorobenzoyl formamide-reducing activity.
Turning to B1, the “optimal pH (pH range in which the relative activity is 80% or higher)” value is recorded as 5.5-6.5.

Still in this data set, the particulars now being: 37° C. for 10 minutes.
In the case of B1, the “stable pH range (pH range in which the residual activity is 80% or higher)” value was 5.5 to 9.5.

The same data set, now with this note: standard reaction conditions.
As to B1, the “optimal temperature (temperature range in which the relative activity is 80% or higher)” value fell in the range of 35 to 47 °C.
